≈ marks a conversion by molar mass, not a printed value.

The first assay deals with Candida parapsilosis. Description: Antifungal activity against Candida parapsilosis GIM 2.190 assessed as inhibition of fungal growth by CLSI M27-A3 guidelines based method. The class given is functional. The settings on record: Lodderomyces parapsilosis.
Turning to `CN(Cc1ccc(N2CCN(Cc3ccc(Br)cc3)CC2)cc1)CC(O)(Cn1cncn1)c1ccc(F)cc1F` (centres undefined), the MIC80 is 0.05 µg/mL (≈ 0.0818 µM).
Take `C#Cc1ccc(CN2CCN(c3ccc(CN(C)CC(O)(Cn4cncn4)c4ccc(F)cc4F)cc3)CC2)cc1` (centres undefined): the MIC80 was 0.4 µg/mL (≈ 0.719 µM).
`CN(Cc1ccc(N2CCN(Cc3ccc(I)cc3)CC2)cc1)CC(O)(Cn1cncn1)c1ccc(F)cc1F` (centres undefined): the MIC80 was 0.1 µg/mL (≈ 0.152 µM).
Same read-out and setting: the value for `CC(C)C(=O)N1CCN(c2ccc(CN(C)CC(O)(Cn3cncn3)c3ccc(F)cc3F)cc2)CC1` (centres undefined) was 0.25 µg/mL (≈ 0.488 µM).
Take `CN(Cc1ccc(N2CCN(Cc3ccc([N+](=O)[O-])cc3)CC2)cc1)CC(O)(Cn1cncn1)c1ccc(F)cc1F` (centres undefined): the MIC80 stood at 0.025 µg/mL (≈ 0.0433 µM).
Consider `CN(Cc1ccc(N2CCN(Cc3cccc(F)c3)CC2)cc1)CC(O)(Cn1cncn1)c1ccc(F)cc1F` (centres undefined), for which the MIC80 is 0.025 µg/mL (≈ 0.0454 µM).
With `CN(Cc1ccc(N2CCN(Cc3ccc(N)cc3)CC2)cc1)CC(O)(Cn1cncn1)c1ccc(F)cc1F` (centres undefined), the MIC80 was 3.2 µg/mL (≈ 5.84 µM).

For the next assay, the system named is Candida tropicalis. The assay can be described thus: Antifungal activity against Candida tropicalis GIM 2.183 assessed as inhibition of fungal growth by CLSI M27-A3 guidelines based method. The class given is functional.
Details: not given
On to `CN(Cc1ccc(N2CCN(Cc3ccc(Br)cc3)CC2)cc1)CC(O)(Cn1cncn1)c1ccc(F)cc1F` (centres undefined), for which the MIC80 came to 0.025 µg/mL (≈ 0.0409 µM).
For `C#Cc1ccc(CN2CCN(c3ccc(CN(C)CC(O)(Cn4cncn4)c4ccc(F)cc4F)cc3)CC2)cc1` (centres undefined), the MIC80 is 0.1 µg/mL (≈ 0.18 µM).
Take `CN(Cc1ccc(N2CCN(Cc3ccc(I)cc3)CC2)cc1)CC(O)(Cn1cncn1)c1ccc(F)cc1F` (centres undefined): the MIC80 came out at 0.05 µg/mL (≈ 0.0759 µM).
For the compound `CC(C)C(=O)N1CCN(c2ccc(CN(C)CC(O)(Cn3cncn3)c3ccc(F)cc3F)cc2)CC1` (centres undefined), the MIC80 was determined as 0.5 µg/mL (≈ 0.975 µM).
For the compound `CN(Cc1ccc(N2CCN(Cc3ccc([N+](=O)[O-])cc3)CC2)cc1)CC(O)(Cn1cncn1)c1ccc(F)cc1F` (centres undefined), the MIC80 was 0.025 µg/mL (≈ 0.0433 µM).
Turning to `CN(Cc1ccc(N2CCN(Cc3cccc(F)c3)CC2)cc1)CC(O)(Cn1cncn1)c1ccc(F)cc1F` (centres undefined), the MIC80 worked out at 0.025 µg/mL (≈ 0.0454 µM).
Regarding `CN(Cc1ccc(N2CCN(Cc3ccc(N)cc3)CC2)cc1)CC(O)(Cn1cncn1)c1ccc(F)cc1F` (centres undefined), the MIC80 is 1.6 µg/mL (≈ 2.92 µM).

The test system of the next assay is Nakaseomyces glabratus. The assay can be described thus: Antifungal activity against Candida glabrata assessed as inhibition of fungal growth by CLSI M27-A3 guidelines based method. The class given is functional.
Details: not given
`CN(Cc1ccc(N2CCN(Cc3ccc(Br)cc3)CC2)cc1)CC(O)(Cn1cncn1)c1ccc(F)cc1F` (centres undefined): the MIC80 worked out at 0.4 µg/mL (≈ 0.654 µM).
Regarding `C#Cc1ccc(CN2CCN(c3ccc(CN(C)CC(O)(Cn4cncn4)c4ccc(F)cc4F)cc3)CC2)cc1` (centres undefined), the MIC80 came out at 3.2 µg/mL (≈ 5.75 µM).
On to `CN(Cc1ccc(N2CCN(Cc3ccc(I)cc3)CC2)cc1)CC(O)(Cn1cncn1)c1ccc(F)cc1F` (centres undefined), for which the MIC80 came to 0.2 µg/mL (≈ 0.304 µM).
Take `CC(C)C(=O)N1CCN(c2ccc(CN(C)CC(O)(Cn3cncn3)c3ccc(F)cc3F)cc2)CC1` (centres undefined): the MIC80 is 16 µg/mL (≈ 31.2 µM).
Consider `CN(Cc1ccc(N2CCN(Cc3ccc([N+](=O)[O-])cc3)CC2)cc1)CC(O)(Cn1cncn1)c1ccc(F)cc1F` (centres undefined), for which the MIC80 is 1.6 µg/mL (≈ 2.77 µM).
In the case of `CN(Cc1ccc(N2CCN(Cc3cccc(F)c3)CC2)cc1)CC(O)(Cn1cncn1)c1ccc(F)cc1F` (centres undefined), the MIC80 is 1.6 µg/mL (≈ 2.91 µM).
Still for that read-out and setting: the value for `CN(Cc1ccc(N2CCN(Cc3ccc(N)cc3)CC2)cc1)CC(O)(Cn1cncn1)c1ccc(F)cc1F` (centres undefined) was 3.2 µg/mL (≈ 5.84 µM).

The subject of another assay is Pichia kudriavzevii. Description: Antifungal activity against Candida krusei GIM 2.1 assessed as inhibition of fungal growth by CLSI M27-A3 guidelines based method. It is filed as functional.
Details: not given
On to `CN(Cc1ccc(N2CCN(Cc3ccc(Br)cc3)CC2)cc1)CC(O)(Cn1cncn1)c1ccc(F)cc1F` (centres undefined), for which the MIC80 stood at 0.1 µg/mL (≈ 0.164 µM).
Still for that read-out and setting: the value for `C#Cc1ccc(CN2CCN(c3ccc(CN(C)CC(O)(Cn4cncn4)c4ccc(F)cc4F)cc3)CC2)cc1` (centres undefined) was 3.2 µg/mL (≈ 5.75 µM); that for `CN(Cc1ccc(N2CCN(Cc3ccc(I)cc3)CC2)cc1)CC(O)(Cn1cncn1)c1ccc(F)cc1F` (centres undefined) was 0.1 µg/mL (≈ 0.152 µM).
Still for that read-out and setting: the value for `CC(C)C(=O)N1CCN(c2ccc(CN(C)CC(O)(Cn3cncn3)c3ccc(F)cc3F)cc2)CC1` (centres undefined) was 16 µg/mL (≈ 31.2 µM).
Same read-out and setting: to `CN(Cc1ccc(N2CCN(Cc3ccc([N+](=O)[O-])cc3)CC2)cc1)CC(O)(Cn1cncn1)c1ccc(F)cc1F` (centres undefined) belongs 0.4 µg/mL (≈ 0.692 µM); to `CN(Cc1ccc(N2CCN(Cc3cccc(F)c3)CC2)cc1)CC(O)(Cn1cncn1)c1ccc(F)cc1F` (centres undefined), 0.4 µg/mL (≈ 0.726 µM); to `CN(Cc1ccc(N2CCN(Cc3ccc(N)cc3)CC2)cc1)CC(O)(Cn1cncn1)c1ccc(F)cc1F` (centres undefined), 3.2 µg/mL (≈ 5.84 µM).

Another assay deals with Candida albicans. Description: Antifungal activity against Candida albicans GIM 2.194 assessed as inhibition of fungal growth by CLSI M27-A3 guidelines based method. It is filed as functional.
Details: not given
On to `CN(Cc1ccc(N2CCN(Cc3ccc(Br)cc3)CC2)cc1)CC(O)(Cn1cncn1)c1ccc(F)cc1F` (centres undefined), for which the MIC80 came out at 0.025 µg/mL (≈ 0.0409 µM).
Consider `C#Cc1ccc(CN2CCN(c3ccc(CN(C)CC(O)(Cn4cncn4)c4ccc(F)cc4F)cc3)CC2)cc1` (centres undefined), for which the MIC80 was 0.2 µg/mL (≈ 0.359 µM).
In the case of `CN(Cc1ccc(N2CCN(Cc3ccc(I)cc3)CC2)cc1)CC(O)(Cn1cncn1)c1ccc(F)cc1F` (centres undefined), the MIC80 came to 0.013 µg/mL (≈ 0.0197 µM).
Take `CC(C)C(=O)N1CCN(c2ccc(CN(C)CC(O)(Cn3cncn3)c3ccc(F)cc3F)cc2)CC1` (centres undefined): the MIC80 was 1 µg/mL (≈ 1.95 µM).
As to `CN(Cc1ccc(N2CCN(Cc3ccc([N+](=O)[O-])cc3)CC2)cc1)CC(O)(Cn1cncn1)c1ccc(F)cc1F` (centres undefined), the MIC80 came to 0.05 µg/mL (≈ 0.0866 µM).
The same measure, in the same setting: the value for `CN(Cc1ccc(N2CCN(Cc3cccc(F)c3)CC2)cc1)CC(O)(Cn1cncn1)c1ccc(F)cc1F` (centres undefined) was 0.025 µg/mL (≈ 0.0454 µM); that for `CN(Cc1ccc(N2CCN(Cc3ccc(N)cc3)CC2)cc1)CC(O)(Cn1cncn1)c1ccc(F)cc1F` (centres undefined) was 3.2 µg/mL (≈ 5.84 µM).

A further assay deals with Cryptococcus neoformans. The assay can be described thus: Antifungal activity against Cryptococcus neoformans CGMCC 2.3161 assessed as inhibition of fungal growth by CLSI M27-A3 guidelines based method. It is filed as functional.
Details: not given
As to `CN(Cc1ccc(N2CCN(Cc3ccc(Br)cc3)CC2)cc1)CC(O)(Cn1cncn1)c1ccc(F)cc1F` (centres undefined), the MIC80 stood at 0.2 µg/mL (≈ 0.327 µM).
Take `C#Cc1ccc(CN2CCN(c3ccc(CN(C)CC(O)(Cn4cncn4)c4ccc(F)cc4F)cc3)CC2)cc1` (centres undefined): the MIC80 was found to be 3.2 µg/mL (≈ 5.75 µM).
In the case of `CN(Cc1ccc(N2CCN(Cc3ccc(I)cc3)CC2)cc1)CC(O)(Cn1cncn1)c1ccc(F)cc1F` (centres undefined), the MIC80 came out at 0.1 µg/mL (≈ 0.152 µM).
Regarding `CC(C)C(=O)N1CCN(c2ccc(CN(C)CC(O)(Cn3cncn3)c3ccc(F)cc3F)cc2)CC1` (centres undefined), the MIC80 stood at 16 µg/mL (≈ 31.2 µM).
With `CN(Cc1ccc(N2CCN(Cc3ccc([N+](=O)[O-])cc3)CC2)cc1)CC(O)(Cn1cncn1)c1ccc(F)cc1F` (centres undefined), the MIC80 was 0.1 µg/mL (≈ 0.173 µM).
With `CN(Cc1ccc(N2CCN(Cc3cccc(F)c3)CC2)cc1)CC(O)(Cn1cncn1)c1ccc(F)cc1F` (centres undefined), the MIC80 was 0.4 µg/mL (≈ 0.726 µM).
For `CN(Cc1ccc(N2CCN(Cc3ccc(N)cc3)CC2)cc1)CC(O)(Cn1cncn1)c1ccc(F)cc1F` (centres undefined), the MIC80 is 3.2 µg/mL (≈ 5.84 µM).

Another assay has as its system Candida albicans. The assay can be described thus: Antifungal activity against Candida albicans SC5314 assessed as inhibition of fungal growth by CLSI M27-A3 guidelines based method.
Details: not given
It is filed as functional.
As to `CN(Cc1ccc(N2CCN(Cc3ccc(Br)cc3)CC2)cc1)CC(O)(Cn1cncn1)c1ccc(F)cc1F` (centres undefined), the MIC80 was determined as 0.025 µg/mL (≈ 0.0409 µM).
In the case of `C#Cc1ccc(CN2CCN(c3ccc(CN(C)CC(O)(Cn4cncn4)c4ccc(F)cc4F)cc3)CC2)cc1` (centres undefined), the MIC80 was 0.1 µg/mL (≈ 0.18 µM).
Turning to `CN(Cc1ccc(N2CCN(Cc3ccc(I)cc3)CC2)cc1)CC(O)(Cn1cncn1)c1ccc(F)cc1F` (centres undefined), the MIC80 amounted to 0.025 µg/mL (≈ 0.038 µM).
For `CC(C)C(=O)N1CCN(c2ccc(CN(C)CC(O)(Cn3cncn3)c3ccc(F)cc3F)cc2)CC1` (centres undefined), the MIC80 turned out to be 0.25 µg/mL (≈ 0.488 µM).
As for `CN(Cc1ccc(N2CCN(Cc3ccc([N+](=O)[O-])cc3)CC2)cc1)CC(O)(Cn1cncn1)c1ccc(F)cc1F` (centres undefined), the MIC80 was determined as 0.025 µg/mL (≈ 0.0433 µM).
Consider `CN(Cc1ccc(N2CCN(Cc3cccc(F)c3)CC2)cc1)CC(O)(Cn1cncn1)c1ccc(F)cc1F` (centres undefined), for which the MIC80 was determined as 0.05 µg/mL (≈ 0.0908 µM).
As to `CN(Cc1ccc(N2CCN(Cc3ccc(N)cc3)CC2)cc1)CC(O)(Cn1cncn1)c1ccc(F)cc1F` (centres undefined), the MIC80 worked out at 1.6 µg/mL (≈ 2.92 µM).

For orientation: MIC80 means the lowest concentration that inhibits either 80% of growth or 80% of the strains tested, depending on the study.

For the origin of these results see ChEMBL document CHEMBL6092162, “Identification of novel and potent triazoles targeting CYP51 for antifungal: Design, synthesis, and biological study” (Eur J Med Chem, 2024).
